Measurements: US20040192888A1, “Method of preparing peptide with high yield and high purity using2-(4-nitrophenylsulfonyl) ethoxycarbonyl-amino acids” (priority 2001, published 2004)

Test: Dissolution comparison of Nα-Nsc-amino acids and Nα-Fmoc-amino acids
Type: physicochemical
Parameters: key: ◯: dissolution; Δ: partial dissolution; X: no dissolution
Details: for Dissolved state, Fmoc, column B / Dissolved state, Fmoc, column A / Dissolved state, Fmoc, column D / Dissolved state, Fmoc, column C: Fmoc-amino acid; for Dissolved state, Fmoc, column B / Dissolved state, Fmoc, column A / Dissolved state, Nsc, column B / Dissolved state, Nsc, column A: 100 mg in 1 ml dichloromethane; for Dissolved state, Fmoc, column B / Dissolved state, Fmoc, column D / Dissolved state, Nsc, column B / Dissolved state, Nsc, column D: heated at 40° C. for 5 minutes, then room temperature 5 minutes; for Dissolved state, Fmoc, column A / Dissolved state, Fmoc, column C / Dissolved state, Nsc, column A / Dissolved state, Nsc, column C: stirring 5 minutes; for Dissolved state, Fmoc, column D / Dissolved state, Fmoc, column C / Dissolved state, Nsc, column D / Dissolved state, Nsc, column C: 15% DMF/DCM; for Dissolved state, Nsc, column B / Dissolved state, Nsc, column A / Dissolved state, Nsc, column D / Dissolved state, Nsc, column C: Nsc-amino acid
Procedure: Since only amino acids fully dissolved in a solvent can be used in acylation reactions, the following tests were performed to find solvent conditions in which amino acids can be completely dissolved.
100 mg of each of Nα-Nsc-amino acids and Nα-Fmoc-amino acids shown in Table 1, below, were precisely weighed and added to two containers added with 1 ml of dichloromethane (hereinafter, referred to as “DCM”), followed by stirring for 5 minutes. The dissolved states of amino acids were observed and are expressed in column A of the following Table 1.
Other amino acids, exclusive of totally dissolved amino acids, were heated in an oven at 40° C. for 5 minutes, and allowed to stand at room temperature for 5 minutes. Their dissolved states are shown in column B.
As such, the undissolved amino acids were dissolved in 15% dimethylformamide (hereinafter, referred to as “DMF”)/DCM in the same manner as in the case of the above column A, and their dissolved states are presented in column C.
Still undissolved amino acids were heated in an oven at 40° C. for 5 minutes, and allowed to stand at room temperature for 5 minutes. Their dissolved states were observed and are shown in column D.

Compound	Dissolved state, Fmoc, column B	Dissolved state, Fmoc, column A	Dissolved state, Fmoc, column D	Dissolved state, Fmoc, column C	Dissolved state, Nsc, column B	Dissolved state, Nsc, column A	Dissolved state, Nsc, column D	Dissolved state, Nsc, column C
C[C@H](NC(=O)OCC1c2ccccc2-c2ccccc21)C(=O)O [Fmoc-Ala, reference compound]	X	X	◯	Δ				
CC(=O)NCSCC(NC(=O)OCC1c2ccccc2-c2ccccc21)C(=O)O (stereo not shown) [Fmoc-Cys, reference compound]	X	X	◯	Δ				
NC(=O)CC[C@H](NC(=O)OCC1c2ccccc2-c2ccccc21)C(=O)O [Fmoc-Gln, reference compound]	◯	◯	◯	◯				
O=C(O)CNC(=O)OCC1c2ccccc2-c2ccccc21 [Fmoc-Gly, reference compound]	X	X	◯	Δ				
O=C(NC(Cc1cn(C(c2ccccc2)(c2ccccc2)c2ccccc2)cn1)C(=O)O)OCC1c2ccccc2-c2ccccc21 (stereo not shown) [Fmoc-His, reference compound]	◯	◯	◯	◯				
CC[C@H](C)[C@H](NC(=O)OCC1c2ccccc2-c2ccccc21)C(=O)O [Fmoc-Iie, reference compound]	Δ	Δ	◯	◯				
CC(C)C[C@@H](NC(=O)OCC1c2ccccc2-c2ccccc21)C(=O)O [Fmoc-Leu, reference compound]	◯	Δ	◯	◯				
CC(C)(C)OC(=O)NCCCCC(NC(=O)OCC1c2ccccc2-c2ccccc21)C(=O)O (stereo not shown) [Fmoc-Lys, reference compound]	◯	◯	◯	◯				
CSCC[C@H](NC(=O)OCC1c2ccccc2-c2ccccc21)C(=O)O [Fmoc-Met, reference compound]	◯	X	◯	◯				
O=C(N[C@@H](Cc1ccccc1)C(=O)O)OCC1c2ccccc2-c2ccccc21 [Fmoc-Phe, reference compound]	X	X	◯	Δ				
O=C(O)[C@@H]1CCCN1C(=O)OCC1c2ccccc2-c2ccccc21 [Fmoc-Pro, reference compound]	◯	◯	◯	◯				
CC(C)(C)OCC(NC(=O)OCC1c2ccccc2-c2ccccc21)C(=O)O (stereo not shown) [Fmoc-Ser, reference compound]	◯	◯	◯	◯				
CC(OC(C)(C)C)C(NC(=O)OCC1c2ccccc2-c2ccccc21)C(=O)O (stereo not shown) [Fmoc-Thr, reference compound]	◯	◯	◯	◯				
O=C(NC(Cc1c[nH]c2ccccc12)C(=O)O)OCC1c2ccccc2-c2ccccc21 (stereo not shown) [Fmoc-Trp, reference compound]	X	X	◯	◯				
CC(C)(C)Oc1ccc(CC(NC(=O)OCC2c3ccccc3-c3ccccc32)C(=O)O)cc1 (stereo not shown) [Fmoc-Tyr, reference compound]	◯	Δ	◯	◯				
CC(C)[C@H](NC(=O)OCC1c2ccccc2-c2ccccc21)C(=O)O [Fmoc-Val, reference compound]	X	X	◯	◯				
C[C@H](NC(=O)OCCS(=O)(=O)c1ccc([N+](=O)[O-])cc1)C(=O)O [Nsc-Ala]					X	X	◯	◯
Cc1c(C)c(S(=O)(=O)N=C(N)NCCCC(NC(=O)OCCS(=O)(=O)c2ccc([N+](=O)[O-])cc2)C(=O)O)c(C)c2c1OC(C)(C)C2 (stereo not shown) [Nsc-Arg]					◯	◯	◯	◯
O=C(CC(NC(=O)OCCS(=O)(=O)c1ccc([N+](=O)[O-])cc1)C(=O)O)NC(c1ccccc1)(c1ccccc1)c1ccccc1 (stereo not shown) [Nsc-Asn]					X	X	◯	◯
CC(C)(C)OC(=O)CCC(NC(=O)OCCS(=O)(=O)c1ccc([N+](=O)[O-])cc1)C(=O)O (stereo not shown) [Nsc-Glu]					◯	◯	◯	◯
O=C(O)CNC(=O)OCCS(=O)(=O)c1ccc([N+](=O)[O-])cc1 [Nsc-Gly]					X	X	◯	Δ
O=C(NC(Cc1cn(C(c2ccccc2)(c2ccccc2)c2ccccc2)cn1)C(=O)O)OCCS(=O)(=O)c1ccc([N+](=O)[O-])cc1 (stereo not shown) [Nsc-His]					◯	Δ	◯	◯
CC[C@H](C)[C@H](NC(=O)OCCS(=O)(=O)c1ccc([N+](=O)[O-])cc1)C(=O)O [Nsc-Iie]					◯	Δ	◯	◯
CC(C)CC(NC(=O)OCCS(=O)(=O)c1ccc([N+](=O)[O-])cc1)C(=O)O (stereo not shown) [Nsc-Leu]					X	X	◯	Δ
CC(C)(C)OC(=O)NCCCCC(NC(=O)OCCS(=O)(=O)c1ccc([N+](=O)[O-])cc1)C(=O)O (stereo not shown) [Nsc-Lys]					◯	◯	◯	◯
CSCC[C@H](NC(=O)OCCS(=O)(=O)c1ccc([N+](=O)[O-])cc1)C(=O)O [Nsc-Met]					◯	Δ	◯	◯
O=C(N[C@@H](Cc1ccccc1)C(=O)O)OCCS(=O)(=O)c1ccc([N+](=O)[O-])cc1 [Nsc-Phe]					X	X	◯	◯
O=C(O)[C@@H]1CCCN1C(=O)OCCS(=O)(=O)c1ccc([N+](=O)[O-])cc1 [Nsc-Pro]					◯	◯	◯	◯
